Where two headings read alike, the source gives them in different places.
Assays:
IRAK4 = IRAK4 (Homo sapiens (Human), UniProt Q9NWZ3); assay: IRAK4 Inhibition Assay; type: biochemical; settings: ATP 500 μM, read-out: IRAK4 IC50
Outline: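 Mobility-shift readout: fluorescent substrate and phosphoproduct resolved electrophoretically on Caliper LabChip 3000 after EDTA quench (35 mM). Enzyme reaction of IRAK4, substrates and test compound ran 60 min at room temperature.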

[1] = system: TLR2 induced IL-6 in peripheral blood mononuclear cells (PBMCs); assay: PBMC TLR2 Induced IL-6 Assay; type: cell-based, human; settings: IL-6 by ELISA; for EC50: read-out: Cell EC50; for IC50: read-out: Cell IC50
Outline: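 Lipoteichoic acid at 10 µg/ml served as TLR2 stimulus for 5 hours, following a 30-minute compound pretreatment at 37° C. Cells were Ficoll-isolated human PBMCs, 250000 cells/well, cultured in RPMI plus 10% heat-inactivated FCS.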

[2] = Homo sapiens, PBMC, PBMC TLR2 Induced IL-6 Assay, lipoteichoic acid stimulation
[3] = Homo sapiens, PBMC, human PBMCs, lipoteichoic acid stimulated
[4] = human PBMCs, lipoteichoic acid stimulated

IRAK4, sequence (Q9NWZ3 whole entry, species assumed): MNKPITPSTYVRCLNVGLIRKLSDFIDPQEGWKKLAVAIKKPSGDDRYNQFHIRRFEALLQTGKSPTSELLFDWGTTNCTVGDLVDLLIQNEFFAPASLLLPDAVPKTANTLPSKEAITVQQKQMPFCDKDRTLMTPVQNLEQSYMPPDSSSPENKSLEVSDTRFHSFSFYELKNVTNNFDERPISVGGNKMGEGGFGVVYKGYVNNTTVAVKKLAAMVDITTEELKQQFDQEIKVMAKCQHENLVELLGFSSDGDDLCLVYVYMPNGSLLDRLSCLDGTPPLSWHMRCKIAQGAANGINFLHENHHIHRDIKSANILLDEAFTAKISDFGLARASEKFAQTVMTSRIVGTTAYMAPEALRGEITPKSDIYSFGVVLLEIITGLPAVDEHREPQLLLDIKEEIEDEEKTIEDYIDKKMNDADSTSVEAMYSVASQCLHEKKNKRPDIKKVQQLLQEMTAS

IC50 (IRAK4; IRAK4 Inhibition Assay)	IC50 (IRAK4; IRAK4 0.6 nM)	SMILES	IC50 [1, 3]	further results
0.0026 µM	–	CC(C)Nc1cc(-n2ccc3cc(C#N)cnc32)ncc1C(=O)NC[C@H](F)C(C)(C)O [Example 23, (S)-6-(5-cyano-1H-pyrrolo[2,3-b]pyridin-1-yl)-N-(2-fluoro-3-hydroxy-3-methylbutyl)-4-(isopropylamino)nicotinamide]	–	EC50 [1, 2]: 0.11 µM
–	0.0019 µM	COC(=O)N1CC(Nc2cc(-n3ccc4cc(C#N)cnc43)ncc2C(=O)NC[C@@H](F)C(C)(C)O)C1 [Example 481]	0.595 µM	EC50 [1, 3]: 0.053 µM
0.0074 µM	–	CC(C)(O)[C@H](F)CNC(=O)c1cnc(-n2cnc3cc(C#N)cnc32)cc1NC1CCOCC1 [Example 345]	–	IC50 [1, 2]: 0.18 µM
0.012 µM	–	CC(C)(O)[C@H](F)CNC(=O)c1cnc(-n2ccc3cc(C#N)cnc32)cc1NC12CC3CC(CC(C3)C1)C2 [Example 13, 4-((1s,3S)-adamantan-1-ylamino)-6-(5-cyano-1H-pyrrolo[2,3-b]pyridin-1-yl)-N—((R)-2-fluoro-3-hydroxy-3-methylbutyl)nicotinamide]	–	EC50 [1, 2]: 0.346 µM
–	0.0035 µM	CC(C)(O)[C@H](F)CNC(=O)c1cnc(-n2ccc3cc(C#N)cnc32)cc1NC1COCC1(F)F (single isomer, unassigned) [Example 484]	–	IC50 [1, 4]: 0.282 µM
0.0068 µM	–	CC(C)(O)[C@H](F)CNC(=O)c1cnc(-n2ccc3cc(C#N)cnc32)cc1NC(CO)CF (stereo partly drawn) [Example 131, 6-(5-Cyano-1H-pyrrolo[2,3-b]pyridin-1-yl)-N—((R)-2-fluoro-3-hydroxy-3-methylbutyl)-4-((1-fluoro-3-hydroxypropan-2-yl)amino)nicotinamide]	–	EC50 [1, 2]: 0.41 µM
–	0.0086 µM	CCCCNC(=O)NCc1cnc2c(ccn2-c2cc(NC(C)C)c(C(=O)NC[C@@H](F)C(C)(C)O)cn2)c1 [Example 516]	0.414 µM	–
0.0028 µM	–	CC(C)Nc1cc(-n2ccc3cc(C#N)cnc32)ncc1C(=O)N[C@H]1CC[C@](O)(c2ccncc2)CC1 [Example 179, 6-(5-cyano-1H-pyrrolo[2,3-b]pyridin-1-yl)-N-((1 s,4s)-4-hydroxy-4-(pyridin-4-yl)cyclohexyl)-4-(isopropylamino)nicotinamide]	–	EC50 [1, 2]: 0.135 µM
–	0.0016 µM	CC(C)(O)[C@H](F)CNC(=O)c1cnc(-n2ncc3cc(C(N)=O)cnc32)cc1Nc1ccc2ncoc2c1 [Example 525]	–	EC50 [1, 3]: 0.253 µM
–	0.0055 µM	CC(C)(O)[C@H](F)CNC(=O)c1cnc(-n2ncc3cc(C#N)cnc32)cc1NC1COCC1(F)F (some centres unmarked) [Example 554]	0.37 µM	–
0.0055 µM	–	CC(C)Nc1cc(-n2ccc3cc(C#N)cnc32)ncc1C(=O)N[C@@H]1CC=C(c2ccncc2)CC1 [Example 184, (S)-6-(5-Cyano-1H-pyrrolo[2,3-b]pyridin-1-yl)-4-(isopropylamino)-N-(4-(pyridin-4-yl)cyclohex-3-en-1-yl)nicotinamide]	–	EC50 [1, 2]: 0.436 µM
0.0027 µM	–	CC1(Nc2cc(-n3ncc4cc(C#N)cnc43)ncc2C(=O)NC[C@@H](F)C(C)(C)O)CC1 [Example 292]	–	IC50 [1, 2]: 0.456 µM
0.0024 µM	–	CCn1cc(Nc2cc(-n3ncc4cc(C#N)cnc43)ncc2C(=O)NC[C@@H](F)C(C)(C)O)cn1 [Example 355]	–	IC50 [1, 2]: 0.122 µM
0.007 µM	–	CC(CCF)Nc1cc(-n2ncc3cc(C#N)cnc32)ncc1C(=O)NC[C@@H](F)C(C)(C)O (mixture of isomers) [Example 205]	–	EC50 [1, 2]: 0.24 µM
–	0.0047 µM	C[C@@H](CO)Nc1cc(-n2ccc3cc(C#N)cnc32)ncc1C(=O)NCCNS(C)(=O)=O [Example 478]	0.805 µM	EC50 [1, 3]: 0.462 µM
–	0.0056 µM	CC(C)(O)[C@H]1CCC[C@@H](Nc2cc(-n3ncc4cc(C#N)cnc43)ncc2C(=O)NC[C@@H](F)C(C)(C)O)C1 [Example 612]	0.262 µM	EC50 [1, 3]: 0.163 µM
–	0.014 µM	CC(C)Nc1cc(-n2ccc3cc(CNC(=O)CC4CCOCC4)cnc32)ncc1C(=O)NC[C@@H](F)C(C)(C)O [Example 518]	0.094 µM	–
–	0.0144 µM	CC(C)(O)[C@H](F)CNC(=O)c1cnc(-n2ncc3cc(C#N)cnc32)cc1NC1CN(c2ncc(Cl)cn2)C1 [Example 541]	0.149 µM	–
–	0.0028 µM	CC(C)(O)[C@H]1CC[C@H](Nc2cc(-n3ncc4cc(C#N)cnc43)ncc2C(=O)NC[C@@H](F)C(C)(C)O)C1 [Example 617]	0.485 µM	–
0.0198 µM	–	CC(C)Nc1cc(-n2ncc3cc(C#N)cnc32)ncc1C(=O)N[C@H]1CCCN(S(C)(=O)=O)C1 [Example 246]	–	EC50 [1, 2]: 0.353 µM
–	0.0048 µM	CC(C)(O)[C@H](F)CNC(=O)c1cnc(-n2ccc3cc(C#N)cnc32)cc1N[C@@H]1COC[C@H]1O [Example 456]	–	EC50 [1, 4]: 0.241 µM
–	0.0175 µM	CC(C)C(O)CNc1cc(-n2ncc3cc(Cl)cnc32)ncc1C(=O)NC[C@@H](F)C(C)(C)O (single isomer, unassigned) [Example 594]	0.319 µM	–
0.0148 µM	–	CC(C)Nc1cc(-n2ncc3cc(C#N)cnc32)ncc1C(=O)NCCCc1ncn[nH]1 [Example 213]	–	EC50 [1, 2]: 0.428 µM

Second part, the molecule before the results:

SMILES	IC50 (IRAK4; IRAK4 Inhibition Assay)	IC50 (IRAK4; IRAK4 0.6 nM)	IC50 [1, 3]	further results
Cn1nnnc1-c1ccc(Nc2cc(-n3ncc4cc(C#N)cnc43)ncc2C(=O)NC[C@@H](F)C(C)(C)O)cc1 [Example 527]	–	0.003 µM	–	EC50 [1, 3]: 0.228 µM
CC(C)CC(O)[C@H](C)Nc1cc(-n2ccc3cc(C#N)cnc32)ncc1C(=O)NC[C@@H](F)C(C)(C)O (single isomer, unassigned) [Example 496]	–	0.0109 µM	0.197 µM	–
CC(C)(O)[C@H](F)CNC(=O)c1cnc(-n2ncc3cc(F)cnc32)cc1NC1COC1 [Example 550]	–	0.0103 µM	–	EC50 [1, 3]: 0.416 µM
CC(C)Nc1cc(-n2ccc3cc(C#N)cnc32)ncc1C(=O)N[C@H]1CC[C@](F)(c2nccs2)CC1 [Example 180, 6-(5-cyano-1H-pyrrolo[2,3-b]pyridin-1-yl)-N-((1s,4s)-4-fluoro-4-(thiazol-2-yl)cyclohexyl)-4-(isopropylamino)nicotinamide]	0.0053 µM	–	–	EC50 [1, 2]: 0.208 µM
CC(F)Cn1cc(Nc2cc(-n3cnc4cc(C#N)cnc43)ncc2C(=O)NC[C@@H](F)C(C)(C)O)cn1 (mixture of isomers) [Example 378]	0.0026 µM	–	–	IC50 [1, 2]: 0.655 µM
CC(C)Nc1cc(-n2ncc3cc(C#N)cnc32)ncc1C(=O)Nc1ccc(N2CCOCC2)cc1 [Example 222]	0.0051 µM	–	–	EC50 [1, 2]: 0.305 µM
CC(C)(O)[C@H](F)CNC(=O)c1cnc(-n2ncc3cc(F)cnc32)cc1NC1CC1 [Example 156, (R)-4-(cyclopropylamino)-6-(5-fluoro-1H-pyrazolo[3,4-b]pyridin-1-yl)-N-(2-fluoro-3-hydroxy-3-methylbutyl)nicotinamide]	0.0095 µM	–	–	EC50 [1, 2]: 0.231 µM
CC(C)(O)[C@H](F)CNC(=O)c1cnc(-n2ncc3cc(C#N)cnc32)cc1NC12CC3CC(CC(O)(C3)C1)C2 [Example 624]	–	0.0021 µM	0.068 µM	–
C[C@@H](Nc1cc(-n2ccc3cc(C#N)cnc32)ncc1C(=O)NC[C@@H](F)C(C)(C)O)C1CC1 [Example 450]	–	0.0028 µM	0.438 µM	EC50 [1, 3]: 0.268 µM
C[C@@H](CO)Nc1cc(-n2ncc3cc(C#N)cnc32)ncc1C(=O)NCCC1CC1 [Example 318]	0.0079 µM	–	–	IC50 [1, 2]: 0.188 µM
CC(C)(O)[C@H](F)CNC(=O)c1cnc(-n2ccc3cc(C#N)cnc32)cc1N[C@H]1CC[C@H](C(N)=O)CC1 [Example 486]	–	0.0012 µM	0.177 µM	–
CC(C)Nc1cc(-n2ccc3cc(CNC(=O)CC(C)(C)C)cnc32)ncc1C(=O)NC[C@@H](F)C(C)(C)O [Example 519]	–	0.0027 µM	0.126 µM	–
CC(C)(O)[C@H](F)CNC(=O)c1cnc(-n2ncc3cc(C#N)c(N)nc32)cc1NC12CC3CC(CC(O)(C3)C1)C2 [Example 632]	–	0.0026 µM	0.149 µM	–
CC(C)Nc1cc(-n2ncc3cc(Cl)cnc32)ncc1C(=O)NCC(F)C1(O)COC1 (centres unmarked) [Example 258]	0.0063 µM	–	–	IC50 [1, 2]: 0.042 µM
CC(C)Nc1cc(-n2ncc3cc(C#N)cnc32)ncc1C(=O)NC[C@@H](F)C(=O)N1CCOCC1 [Example 256]	0.0147 µM	–	–	IC50 [1, 2]: 0.148 µM
CC(C)(O)[C@H](F)CNC(=O)c1cnc(-n2ncc3cc(C#N)cnc32)cc1Nc1ccn(CC(F)F)n1 [Example 407]	–	0.0031 µM	0.287 µM	–
CC(C)Nc1cc(-n2ncc3cc(C#N)c(N)nc32)ncc1C(=O)NCCC1CC1 [Example 299]	0.0063 µM	–	–	IC50 [1, 2]: 0.252 µM
COC(=O)N1CC(Nc2cc(-n3ncc4cc(C#N)cnc43)ncc2C(=O)NC[C@@H](F)C(C)(C)O)C1 [Example 542]	–	0.0073 µM	0.973 µM	–
CC(C)Nc1cc(-n2ncc3cc(C#N)cnc32)ncc1C(=O)NCCc1ccc(S(N)(=O)=O)cc1 [Example 251]	0.0031 µM	–	–	EC50 [1, 2]: 0.311 µM
CC[C@@H](F)CNc1cc(-n2ncc3cc(Cl)cnc32)ncc1C(=O)NC[C@@H](F)C(C)(C)O [Example 602]	–	0.0093 µM	0.233 µM	–
CC(C)Nc1cc(-n2ccc3cc(C#N)cnc32)ncc1C(=O)NC12CCC(O)(CC1)C2 [Example 415]	–	0.0148 µM	–	EC50 [1, 3]: 0.286 µM
